Experiments:
[1] = 19F NMR kinetics of release of compound 19 from prodrug; type: physicochemical; conditions: release of 4-trifluoromethylpiperidine
Text: Next, to assess the kinetics of the release of the active compound 19 from the prodrug compound 19-AP1, the release of 4trifluoropiperidine from the prodrug compound 19-AP1 was monitored using ^19F-NMR spectroscopy following a reported method. (Woods, Mo, Bieberich, Alavanja, & Colby, 2011). […] This observation is consistent with previously reported studies with a prodrug of parthenolide.

[2] = cysteine binding assay using Ellman's reagent; type: physicochemical; conditions: 19 vs prodrug under similar conditions
Text: Without wishing to be bound by theory, it is believed that the α-methylene-γ-butyrolactone moiety on compound 19 is reactive toward biological nucleophiles such as glutathione and cysteine. To determine if secondary amine prodrug of compound 19 (Compound 19-AP1) results in improved stability, the reactivity of analog compound 19 and the prodrug compound 19-AP1 was compared in a cysteine binding assay using Ellman's reagent (FIG. 1B).

[3] = test system: FT282E1 immortalized fallopian tube epithelial cells; test: 72 h growth inhibition assay; type: cell-based; conditions: Epithelial cell; FT282E1, 72 h
Description: (§1) The cancer cell growth-inhibitory potential of amine-prodrugs (compounds 19-AP1 and 19-AP2) was evaluated. Compounds 19, 19-AP1 and 19-AP2 were screened in ovarian cancer lines (A2780, and OVSAHO) and immortalized fallopian tube epithelial cells (FT282E1) in a 72 h growth inhibition assay.

[4] = test system: OVSAHO ovarian cancer line; test: 72 h growth inhibition assay; type: cell-based; conditions: for IC50: Homo sapiens, 72 h
Description: as §1

[5] = test system: A2780 ovarian cancer line; test: 72 h growth inhibition assay; type: cell-based; conditions: Homo sapiens, A2780, 72 h
Description: as §1

[6] = Phase II and III clinical trials; cited from earlier work
[7] = test system: SKOV3 ovarian cancer cell line; test: growth inhibition, synergy studies; type: cell-based; conditions: for IC50: Homo sapiens, SK-OV-3, SKOV3, read-out: IC50 (Mean ± SD)
[8] = test system: FT282C11 immortalized fallopian tube epithelial cell line; test: growth inhibition, synergy studies; type: cell-based; conditions: read-out: IC50 (Mean ± SD)
[9] = test system: OVCAR4 ovarian cancer cell line; test: growth inhibition, synergy studies; type: cell-based; conditions: Homo sapiens, OVCAR-4, read-out: IC50 (Mean ± SD)
[10] = target: CDK6 (Homo sapiens, UniProt Q00534); test: cell-free CDK inhibitor assay; type: biochemical; conditions: for fold less potent than palbociclib: CDK6; for IC50: CDK6, cell-free
[11] = test system: A2780 ovarian cancer cell line; test: growth inhibition, synergy studies; type: cell-based; conditions: Homo sapiens, read-out: IC50 (Mean ± SD)
[12] = test system: CaOV3 ovarian cancer cell line; test: growth inhibition, synergy studies; type: cell-based; conditions: Homo sapiens, Caov-3, read-out: IC50 (Mean ± SD)
[13] = test system: OVCAR5 ovarian cancer cell line; test: growth inhibition, synergy studies; type: cell-based; conditions: Homo sapiens, OVCAR-5, read-out: IC50 (Mean ± SD)
[14] = test system: 9 ovarian cancer and 2 immortalized fallopian tube epithelial cell lines; test: growth inhibition, expanded panel, average over cell lines; type: cell-based; conditions: average over 11 cell lines
Text: The ^AveCI for compound 5 in SKOV3 cells was 0.2 indicating strong synergism.

[15] = test system: FT282E1 immortalized fallopian tube epithelial cell line; test: growth inhibition, synergy studies; type: cell-based; conditions: for IC50: Epithelial cell, FT282E1, read-out: IC50 (Mean ± SD)
[16] = target: CDK4 (Homo sapiens, UniProt P11802); test: cell-free CDK inhibitor assay; type: biochemical; conditions: for fold less potent than palbociclib: CDK4; for IC50: CDK4, cell-free
[17] = test system: Kuramochi ovarian cancer cell line; test: growth inhibition, synergy studies; type: cell-based; conditions: read-out: IC50 (Mean ± SD)
[18] = test system: OVSAHO ovarian cancer cell line; test: growth inhibition, synergy studies; type: cell-based; conditions: for IC50: Homo sapiens, OVSAHO, read-out: IC50 (Mean ± SD)
[19] = test system: OVCAR8 ovarian cancer cell line; test: growth inhibition, synergy studies; type: cell-based; conditions: Homo sapiens, OVCAR-8, read-out: IC50 (Mean ± SD)
[20] = test system: SNU119 ovarian cancer cell line; test: growth inhibition, synergy studies; type: cell-based; conditions: read-out: IC50 (Mean ± SD)
[21] = test system: FTE282E1, OVSAHO, HPNE, MiaPaCa2 and S2013 cell lines; test: growth inhibition assays in a panel of five cell lines; conditions: for potency rank among inhibitors treated as single agents: irrespective of the cell line
[22] = target: T1, RELA (Homo sapiens, UniProt Q04206); test: target engagement in A2780 cells (click chemistry pull-down, Western blot); type: cell-based; conditions: 48 h
T1 construct: endogenous in cells; host or cells: A2780
Description: (§2) Briefly, the cells were incubated with 10 μM of compound 4 for […]. In cells, compound 4 is converted to compound 3 with an active methylene group which reacts with surface-exposed cysteine residues on proteins. The lysate was treated with click reagents (TCEP, TBTA and CuSO4) and azido-biotin. Biotin-tagged-3-bound proteins were subjected to monoavidin column. Biotin-tagged proteins were captured, the column was washed to removed untagged proteins and the biotin-tagged-3-bound proteins were eluted with regeneration buffer (6M urea/PBS). The eluted lysates were subjected to Western blot analyses and probed for proteins (IKKβ, RELA, IκBα and IKKγ) in the IKK complex.
(§3) To determine target engagement in cells, cancer cells (A2780) were treated with the compound 4, which is an alkyne-tagged analog of prodrug compound 19-AP1 for 48 h (FIG. 2B). Cells were then harvested, washed and pelleted. Unbound compound 4 was removed by extensively washing the cell pellet. The cell pellets were lysed, and 2 mg/mL of lysates were subjected to click chemistry with TAMRA-Biotin-Azide trifunctional probe (10 mM stock, 20 μL, click chemistry tools), and other click reagents (TCEP, 100 mM stock, 20 μL; TBTA 13.5 mM stock, 20 μL and CuSO4 100 mM stock, 10 μL) to make total volume of 1 mL. The reaction was incubated for 3 h at RT. The lysates were incubated with monomeric avidin beads for additional 1 h. […]

[23] = target: T2, IKKβ (Homo sapiens, UniProt O14920); test: as above; type: cell-based; conditions: 48 h
T2 construct: endogenous in cells; host or cells: A2780
Description: as §2, §3

Chain of CDK6 (Q00534 whole entry): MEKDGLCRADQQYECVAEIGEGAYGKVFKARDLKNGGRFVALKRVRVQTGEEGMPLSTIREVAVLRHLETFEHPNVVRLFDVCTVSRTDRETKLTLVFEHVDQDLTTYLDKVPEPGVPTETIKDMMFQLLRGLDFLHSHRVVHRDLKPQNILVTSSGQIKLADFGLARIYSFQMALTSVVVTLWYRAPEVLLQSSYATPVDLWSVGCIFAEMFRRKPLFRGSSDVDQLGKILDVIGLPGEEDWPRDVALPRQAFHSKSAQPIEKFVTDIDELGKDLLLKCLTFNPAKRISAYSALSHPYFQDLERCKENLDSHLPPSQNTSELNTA
Chain of CDK6 (P30281 whole entry partner): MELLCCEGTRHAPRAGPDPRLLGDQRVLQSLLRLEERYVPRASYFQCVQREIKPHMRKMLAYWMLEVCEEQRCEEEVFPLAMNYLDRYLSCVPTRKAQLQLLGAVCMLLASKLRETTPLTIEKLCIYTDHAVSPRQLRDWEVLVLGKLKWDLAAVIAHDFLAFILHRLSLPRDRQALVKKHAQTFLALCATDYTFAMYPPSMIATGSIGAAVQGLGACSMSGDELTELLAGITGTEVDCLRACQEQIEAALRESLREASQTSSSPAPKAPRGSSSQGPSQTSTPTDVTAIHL
Chain of CDK4 (P11802 whole entry): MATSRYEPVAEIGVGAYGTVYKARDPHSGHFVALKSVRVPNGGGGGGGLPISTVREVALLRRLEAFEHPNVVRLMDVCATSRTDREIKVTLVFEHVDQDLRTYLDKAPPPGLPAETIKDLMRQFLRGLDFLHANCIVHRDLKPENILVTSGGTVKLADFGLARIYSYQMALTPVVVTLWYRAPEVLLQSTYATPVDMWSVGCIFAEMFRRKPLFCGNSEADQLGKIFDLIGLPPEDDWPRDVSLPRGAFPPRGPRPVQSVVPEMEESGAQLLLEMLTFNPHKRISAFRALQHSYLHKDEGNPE
Chain of CDK4 (P24385 whole entry partner): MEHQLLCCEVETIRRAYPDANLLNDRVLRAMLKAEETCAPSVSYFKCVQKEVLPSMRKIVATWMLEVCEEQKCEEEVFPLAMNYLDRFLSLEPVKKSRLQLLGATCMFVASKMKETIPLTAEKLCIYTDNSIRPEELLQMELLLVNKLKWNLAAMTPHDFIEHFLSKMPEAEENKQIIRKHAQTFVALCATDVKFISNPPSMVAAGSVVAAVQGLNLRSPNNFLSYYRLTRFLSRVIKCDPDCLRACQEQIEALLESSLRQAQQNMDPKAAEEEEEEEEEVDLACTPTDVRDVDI
T2 sequence (O14920 whole entry): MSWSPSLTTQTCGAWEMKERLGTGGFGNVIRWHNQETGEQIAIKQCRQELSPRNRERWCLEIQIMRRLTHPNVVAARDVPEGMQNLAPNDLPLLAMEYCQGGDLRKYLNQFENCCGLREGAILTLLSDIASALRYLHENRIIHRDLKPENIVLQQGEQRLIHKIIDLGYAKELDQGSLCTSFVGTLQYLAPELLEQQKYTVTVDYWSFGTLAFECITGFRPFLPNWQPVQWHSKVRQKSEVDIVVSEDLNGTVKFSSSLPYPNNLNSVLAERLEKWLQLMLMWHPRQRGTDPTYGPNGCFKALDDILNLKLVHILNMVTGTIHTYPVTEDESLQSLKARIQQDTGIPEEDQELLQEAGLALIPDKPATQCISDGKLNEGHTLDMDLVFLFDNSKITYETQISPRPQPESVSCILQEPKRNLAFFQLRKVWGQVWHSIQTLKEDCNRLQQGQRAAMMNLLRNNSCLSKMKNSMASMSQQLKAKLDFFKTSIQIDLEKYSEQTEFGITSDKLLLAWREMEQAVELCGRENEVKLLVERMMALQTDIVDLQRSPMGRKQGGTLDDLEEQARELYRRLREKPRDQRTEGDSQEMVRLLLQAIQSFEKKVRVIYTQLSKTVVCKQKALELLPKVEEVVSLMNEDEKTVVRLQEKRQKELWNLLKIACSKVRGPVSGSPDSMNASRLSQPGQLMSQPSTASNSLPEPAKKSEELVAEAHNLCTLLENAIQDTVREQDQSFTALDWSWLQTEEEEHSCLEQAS
T1 sequence (Q04206 whole entry): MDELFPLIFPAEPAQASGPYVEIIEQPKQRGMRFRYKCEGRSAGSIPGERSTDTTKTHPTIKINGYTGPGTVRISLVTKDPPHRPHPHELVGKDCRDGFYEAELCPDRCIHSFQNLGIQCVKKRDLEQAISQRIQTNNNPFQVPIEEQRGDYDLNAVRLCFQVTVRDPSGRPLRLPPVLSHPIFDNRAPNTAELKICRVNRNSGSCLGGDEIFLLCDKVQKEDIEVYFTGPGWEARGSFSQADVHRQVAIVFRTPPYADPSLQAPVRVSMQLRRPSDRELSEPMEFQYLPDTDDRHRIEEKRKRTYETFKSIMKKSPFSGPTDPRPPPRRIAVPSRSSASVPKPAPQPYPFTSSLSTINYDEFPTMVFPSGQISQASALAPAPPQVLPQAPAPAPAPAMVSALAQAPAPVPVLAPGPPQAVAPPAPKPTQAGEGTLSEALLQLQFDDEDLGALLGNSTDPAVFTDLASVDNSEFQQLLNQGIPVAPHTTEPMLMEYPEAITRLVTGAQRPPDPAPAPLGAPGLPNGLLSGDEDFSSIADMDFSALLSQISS

Compound: O=C1OC2(CC1CN1CCC(C(F)(F)F)CC1)C(=O)Nc1ccccc12 (stereo not drawn) [Compound 19-AP1, 4-((4-(trifluoromethyl)piperidin-1-yl)methyl)-3,4-dihydro-5H-spiro[furan-2,3′-indoline]-2′,5dione]
- period over which the prodrug is hydrolyzed slowly to release the active compound 19 [1]: 72 h
- reactivity towards free cysteine [2]: more stable
- IC50 [3]: 10.2 ± 0.56 µM
- potency relative to parent compound 19 [4]: more potent
- IC50 [4]: 10.8 ± 1.28 µM
- IC50 [5]: 5.71 ± 0.24 µM

Compound: COc1cccc2c1C(=O)c1c(O)c3c(c(O)c1C2=O)C[C@@](O)(/C(CO)=N/NC(=O)CCCCCN1C(=O)C=CC1=O)C[C@@H]3O[C@H]1C[C@H](N)[C@H](O)[C@H](C)O1 [INNO-206]
- cardiotoxicity profile compared with doxorubicin [6]: far superior

Compound: CC(=O)c1c(C)c2cnc(Nc3ccc(N4CCN(CC5CC6(OC5=O)C(=O)Nc5ccccc56)CC4)cn3)nc2n(C2CCCC2)c1=O (stereo not drawn) [Compound 5, 4-((4-(6-((6-Acetyl-8-cyclopentyl-5-methyl-7-oxo-7,8-dihydropyrido[2,3-d]pyrimidin-2yl)amino)pyridin-3-yl)piperazin-1-yl)methyl)-3,4-dihydro-5H-spiro[furan-2,3′-indoline]-2′,5dione]
- IC50 [7]: 15.4 ± 1.5 µM
- average combination index (AveCI) ([7]; SKOV3 cells): 0.2
- IC50 [8]: 21.8 ± 1.5 µM
- IC50 [9]: 17.9 ± 1.4 µM
- fold less potent than palbociclib [10]: ~20 fold
- IC50 [10]: 0.009 ± 0.001 µM
- IC50 [11]: 6.6 ± 1.3 µM
- IC50 [12]: 5.5 ± 0.5 µM
- IC50 [13]: 9.3 ± 0.9 µM
- fold less potent than the corresponding 1:1 mixture, on an average [14]: equipotent
- fold more potent than the parthenolide-palbociclib compound 6 [14]: ~3 fold
- IC50 [15]: 14.6 ± 1.2 µM
- average combination index (AveCI) ([15]; FT282E1 cells): > 1.0
- fold less potent than palbociclib [16]: ~100 fold
- IC50 [16]: 0.046 ± 0.014 µM
- IC50 [17]: > 40 µM
- IC50 [18]: 11.4 ± 0.9 µM
- average combination index (AveCI) ([18]; OVSAHO cells, effective dose (ED) 50, 75 and 90): 0.9
- IC50 [19]: 9.1 ± 0.9 µM
- IC50 [20]: 8.8 ± 1.6 µM

Compound: CN(C)CC1CC2(OC1=O)C(=O)Nc1ccccc12 (stereo not drawn) [Compound 19-AP2, 4-((dimethylamino)methyl)-3,4-dihydro-5H-spiro[furan-2,3′-indoline]-2′,5-dione]
- IC50 [3]: 12 ± 1.26 µM
- potency relative to parent compound 19 [4]: more potent
- IC50 [4]: 9.81 ± 1.07 µM
- IC50 [5]: 5.38 ± 0.33 µM

Compound: C/C1=C\CCC[C@@]2(C)O[C@@H]2[C@H]2OC(=O)C(CN3CCC(NC(=O)c4n[nH]cc4NC(=O)c4c(Cl)cccc4Cl)CC3)[C@@H]2C1 (stereo partly drawn) [Compound 8, 4-(2,6-dichlorobenzamido)-N-(1-(((3R,3aS,9aR,10aS,10bS,E)-6,9a-dimethyl-2-oxo2,3,3a,4,5,8,9,9a,10a,10b-decahydrooxireno[2′,3′:9,10]cyclodeca[1,2-b]furan-3yl)methyl)piperidin-4-yl)-1H-pyrazole-3-carboxamide]
- potency relative to the palbociclib based compounds (compounds 5 and 6) [21]: more potent

Compound: O=C(NC1CCN(CC2CC3(OC2=O)C(=O)Nc2ccccc23)CC1)c1n[nH]cc1NC(=O)c1c(Cl)cccc1Cl (stereo not drawn) [Compound 7, 4-(2,6-dichlorobenzamido)-N-(1-((2′,5-dioxo-4,5-dihydro-3H-spiro[furan-2,3′-indolin]-4yl)methyl)piperidin-4-yl)-1H-pyrazole-3-carboxamide]
- potency relative to the palbociclib based compounds (compounds 5 and 6) [21]: more potent

Compound: C=C1CC2(OC1=O)C(=O)Nc1ccccc12 (stereo not drawn) [Compound 19, 4-methylene-3,4-dihydro-5H-spiro(furan-2,3′-indoline)-2′,5-dione, reference compound]
- reactivity towards free cysteine [2]: reacted rapidly
- potency rank among inhibitors treated as single agents [21]: AT7519>compound 19>parthenolide>palbociclib
- IC50 [3]: 5.28 ± 0.17 µM
- IC50 [4]: 20.4 ± 4.71 µM
- IC50 [5]: 2.15 ± 0.15 µM

Compound: O=C(NC1CCNCC1)c1[nH]ncc1NC(=O)c1c(Cl)cccc1Cl [AT7519, reference compound]
- potency rank among inhibitors treated as single agents [21]: AT7519>compound 19>parthenolide>palbociclib

Compound: CC(=O)c1c(C)c2cnc(Nc3ccc(N4CCN(CC5C(=O)O[C@@H]6[C@H]7O[C@]7(C)CCC/C=C(\C)C[C@@H]56)CC4)cn3)nc2n(C2CCCC2)c1=O (stereo partly drawn) [Compound 6, 6-Acetyl-8-cyclopentyl-2-((5-(4-(((3R,3aS,9aR,10aS,10bS,E)-6,9a-dimethyl-2-oxo2,3,3a,4,5,8,9,9a,10a,10b-decahydrooxireno[2′,3′:9,10]cyclodeca[1,2-b]furan-3yl)methyl)piperazin-1-yl)pyridin-2-yl)amino)-5-methylpyrido[2,3-d]pyrimidin-7(8H)-one]
- IC50 [7]: > 40 µM
- IC50 [8]: 25.6 ± 4.8 µM
- IC50 [9]: > 40 µM
- fold less potent than palbociclib [10]: ~50 fold
- IC50 [10]: 0.018 ± 0.001 µM
- IC50 [11]: 31 ± 7 µM
- IC50 [12]: 25 ± 3.2 µM
- IC50 [13]: 32.6 ± 4.4 µM
- fold less potent than the corresponding 1:1 mixture, on an average [14]: ~7 fold
- IC50 [15]: > 40 µM
- fold less potent than palbociclib [16]: ~200 fold
- IC50 [16]: 0.085 ± 0.018 µM
- IC50 [17]: > 40 µM
- IC50 [18]: 31.1 ± 2.3 µM
- IC50 [19]: 38.4 ± 4.5 µM
- IC50 [20]: 34.9 ± 6.3 µM

Compound: C#CCN1C(=O)C2(CC(CN3CCC(C(F)(F)F)CC3)C(=O)O2)c2ccccc21 (stereo not drawn) [Compound 4, 1′-(prop-2-yn-1-yl)-4-((4-(trifluoromethyl)piperidin-1-yl)methyl)-3,4-dihydro-5H-spiro[furan2,3′-indoline]-2′,5-dione]
- covalent binding of RELA protein [22]: observed
- covalent binding of IKKβ protein [23]: observed

Reference: US20230174548A1, “SYMBIOTIC PRODRUGS FOR THE TREATMENT OF CANCER AND OTHER DISEASES” (BOARD OF REGENTS OF THE UNIVERSITY OF NEBRASKA, priority 2020, published 2023)
